Literature values in patent US10206884B2, “Microcapsules with polymeric coating comprising a lipid and an active agent” (FRESENIUS KABI DEUTSCHLAND GMBH, priority 2013, dated 2019).

solubility in water: only poorly soluble in water
Compound: CCCC(=O)OCC(COC(=O)CCC)OC(=O)CCC [tributyrin, 1,3-di(butanoyloxy)propan-2-yl butanoate]
